The values that follow come from patent US20250375467A1, “SUSTAINED RELEASE SILICA HYDROGEL COMPOSITES FOR TREATING OPHTHALMOLOGICAL CONDITIONS AND METHODS OF USING SAME” (ASTELLAS US LLC, priority 2022, published 2025).

On the set-up of the series: species or system Dutch belted (DB) rabbit. Conditions: rabbit, in vivo. As to the method:
The composite formulation (using formulation #11 CSTR-3) prepared as described in Examples 2 and 3, whose in vitro release profile is shown in FIG. 8A and FIG. 8B, was evaluated for ACP release and tissue exposure following IVT administration in the Dutch belted (DB) rabbit. The study design includes bilateral intravitreal dosing of 1.0 mg oligo equivalent in a 50 μL dosing volume of silica composite PK formulation. Two rabbits (4 eyes) were collected at each of the following time points, day 1, 3, 7, 14, 28, 42, 56, and 84. Eyes were dissected, and vitreous humor, retina, and retinal pigment epithelium (RPE)/choroid were collected for tissue specific bioanalytical analysis employing a qualified dual-hybridization assay. The ocular PK (pharmacokinetics) is summarized in FIG. 9 for liquid formulation administered as an IVT bolus dose for vitreous humor and retina tissues as comparator to the sustained release depot PK formulation. The ocular tissue PK for the PK formulation is provided as solid lines for vitreous humor (top line), retina (middle line) and RPE/choroid (bottom line).
At study termination (day 84), the remaining PK formulation depot was recovered from the vitreous humor by centrifugation and analyzed for remaining silica by microwave plasma atomic emission spectroscopy (MP-AES) method and avacincaptad pegol content by a qualified HPLC assay method. […]

With avacincaptad pegol [ACP], the terminal half-life was 91.2 h.
